Target: T1, Aconitase (AcnA) (Escherichia coli, UniProt P25516)
T1 construct: cell-free (PUREfrex) synthesis, N-His6 tag removed with HRV protease, [4Fe-4S] cluster matured by SUF system
Test: LC-MS of citrate consumption, isocitrate dehydrogenase-coupled
Assay type: biochemical
Settings: coupled with NADP-dependent isocitrate dehydrogenase

T1 sequence (P25516 2-891): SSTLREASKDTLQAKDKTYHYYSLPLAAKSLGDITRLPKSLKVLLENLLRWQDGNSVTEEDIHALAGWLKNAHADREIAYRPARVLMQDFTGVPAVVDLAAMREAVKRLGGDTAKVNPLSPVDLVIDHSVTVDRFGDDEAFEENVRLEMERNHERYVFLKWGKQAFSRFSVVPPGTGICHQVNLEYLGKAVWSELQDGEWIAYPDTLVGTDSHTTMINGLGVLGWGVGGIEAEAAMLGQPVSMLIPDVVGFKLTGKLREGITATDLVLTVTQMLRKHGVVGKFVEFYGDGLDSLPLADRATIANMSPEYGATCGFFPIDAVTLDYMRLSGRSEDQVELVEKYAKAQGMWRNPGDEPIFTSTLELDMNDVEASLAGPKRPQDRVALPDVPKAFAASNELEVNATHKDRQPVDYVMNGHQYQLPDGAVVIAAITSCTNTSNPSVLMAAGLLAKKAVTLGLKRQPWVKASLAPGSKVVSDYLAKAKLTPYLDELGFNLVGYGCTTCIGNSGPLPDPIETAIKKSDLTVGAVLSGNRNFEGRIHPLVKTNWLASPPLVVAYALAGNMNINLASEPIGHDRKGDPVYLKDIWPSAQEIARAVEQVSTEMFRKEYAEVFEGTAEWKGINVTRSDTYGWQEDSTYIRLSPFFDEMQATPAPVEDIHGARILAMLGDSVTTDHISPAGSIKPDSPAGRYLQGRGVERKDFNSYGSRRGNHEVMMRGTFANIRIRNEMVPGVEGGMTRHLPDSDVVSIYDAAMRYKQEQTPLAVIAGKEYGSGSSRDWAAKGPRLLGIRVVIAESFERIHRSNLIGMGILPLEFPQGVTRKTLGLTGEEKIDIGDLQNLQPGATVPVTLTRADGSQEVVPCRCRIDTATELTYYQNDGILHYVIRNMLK

SMILES: O=C(O)CC(O)(CC(=O)O)C(=O)O [citrate]
- LC-MS of citrate consumption, isocitrate dehydrogenase-coupled: concurring citrate consumption and alpha-ketoglutarate production in the assays with AcnA purified
